# What was measured:
# Experiment in all cases: radiometric filter-binding kinase assay, Kinase HotSpot
# Conditions in all cases: compound 0.5 µM; ATP 10 µM
# [1] = biological target: ACVR1 (human) (UniProt Q04771)
# [2] = biological target: AURKB (human) (UniProt Q96GD4)
# [3] = biological target: BRAF (human) (UniProt P15056)
# [4] = biological target: CDC42BPB (human) (UniProt Q9Y5S2)
# [5] = biological target: CDK5 CDK5R1 p35 (human) (UniProt Q00535+Q15078)
# [6] = biological target: CHUK (human) (UniProt O15111)
# [7] = biological target: CLK2 (human) (UniProt P49760)
# [8] = biological target: CSNK1G1 (human) (UniProt Q9HCP0)
# [9] = biological target: DAPK1 (human) (UniProt P53355)
# [10] = biological target: DDR2 (human) (UniProt Q16832)
# [11] = biological target: EGFR (human) (UniProt P00533)
# [12] = biological target: EPHA6 (human) (UniProt Q9UF33)
# [13] = biological target: ERBB4 (human) (UniProt Q15303)
# [14] = biological target: FER (human) (UniProt P16591)
# [15] = biological target: FGFR2 (human) (UniProt P21802)
# [16] = biological target: FGFR3 (human) (UniProt P22607)
# [17] = biological target: GSK3B (human) (UniProt P49841)
# [18] = biological target: KIT (human) (UniProt P10721)
# [19] = biological target: LCK (human) (UniProt P06239)
# [20] = biological target: MAP3K3 (human) (UniProt Q99759)
# [21] = biological target: MAP3K5 (human) (UniProt Q99683)
# [22] = biological target: MAPK14 (human) (UniProt Q16539)
# [23] = biological target: MAPKAPK2 (human) (UniProt P49137)
# [24] = biological target: MERTK (human) (UniProt Q12866)
# [25] = biological target: MYO3B (human) (UniProt Q8WXR4)
# [26] = biological target: NEK4 (human) (UniProt P51957)
# [27] = biological target: NUAK1 (human) (UniProt O60285)
# [28] = biological target: PAK6 (human) (UniProt Q9NQU5)
# [29] = biological target: PASK (human) (UniProt Q96RG2)
# [30] = biological target: PIM1 (human) (UniProt P11309)
# [31] = biological target: PRKACG (human) (UniProt P22612)
# [32] = biological target: PRKCB2 (human) (UniProt P05771)
# [33] = biological target: PRKCD (human) (UniProt Q05655)
# [34] = biological target: PRKD3 (human) (UniProt O94806)
# [35] = biological target: PTK6 (human) (UniProt Q13882)
# [36] = biological target: RPS6KA2 KD1 KD2 (human) (UniProt Q15349)
# [37] = biological target: RPS6KB2 (human) (UniProt Q9UBS0)
# [38] = biological target: SRPK1 (human) (UniProt Q96SB4)
# [39] = biological target: STK38 (human) (UniProt Q15208)
# [40] = biological target: TEK (human) (UniProt Q02763)
# [41] = biological target: TLK2 (human) (UniProt Q86UE8)
# [42] = biological target: ULK3 (human) (UniProt Q6PHR2)
# BRAF (human), sequence (P15056 whole entry, looked up): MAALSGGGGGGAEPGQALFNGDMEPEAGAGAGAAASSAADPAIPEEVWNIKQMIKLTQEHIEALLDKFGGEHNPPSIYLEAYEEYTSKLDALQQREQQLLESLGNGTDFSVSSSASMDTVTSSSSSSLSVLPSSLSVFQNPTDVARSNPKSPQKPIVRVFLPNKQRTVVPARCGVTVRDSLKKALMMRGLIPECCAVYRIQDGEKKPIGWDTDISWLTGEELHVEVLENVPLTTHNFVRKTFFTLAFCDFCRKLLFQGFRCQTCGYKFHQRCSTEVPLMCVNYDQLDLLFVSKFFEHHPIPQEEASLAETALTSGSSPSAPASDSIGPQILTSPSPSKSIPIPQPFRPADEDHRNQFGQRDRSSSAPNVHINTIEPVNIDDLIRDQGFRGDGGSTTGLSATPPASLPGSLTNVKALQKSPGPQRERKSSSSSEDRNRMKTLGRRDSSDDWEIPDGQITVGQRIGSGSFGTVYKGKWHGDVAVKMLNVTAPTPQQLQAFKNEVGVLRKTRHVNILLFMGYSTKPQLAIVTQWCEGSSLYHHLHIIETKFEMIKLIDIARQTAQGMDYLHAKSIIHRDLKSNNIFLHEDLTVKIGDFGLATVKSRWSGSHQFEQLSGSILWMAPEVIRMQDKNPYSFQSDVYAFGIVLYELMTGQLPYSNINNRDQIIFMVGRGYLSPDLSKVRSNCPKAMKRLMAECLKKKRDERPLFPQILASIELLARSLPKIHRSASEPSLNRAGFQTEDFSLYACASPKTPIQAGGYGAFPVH
# FGFR3 (human), sequence (P22607 whole entry, looked up): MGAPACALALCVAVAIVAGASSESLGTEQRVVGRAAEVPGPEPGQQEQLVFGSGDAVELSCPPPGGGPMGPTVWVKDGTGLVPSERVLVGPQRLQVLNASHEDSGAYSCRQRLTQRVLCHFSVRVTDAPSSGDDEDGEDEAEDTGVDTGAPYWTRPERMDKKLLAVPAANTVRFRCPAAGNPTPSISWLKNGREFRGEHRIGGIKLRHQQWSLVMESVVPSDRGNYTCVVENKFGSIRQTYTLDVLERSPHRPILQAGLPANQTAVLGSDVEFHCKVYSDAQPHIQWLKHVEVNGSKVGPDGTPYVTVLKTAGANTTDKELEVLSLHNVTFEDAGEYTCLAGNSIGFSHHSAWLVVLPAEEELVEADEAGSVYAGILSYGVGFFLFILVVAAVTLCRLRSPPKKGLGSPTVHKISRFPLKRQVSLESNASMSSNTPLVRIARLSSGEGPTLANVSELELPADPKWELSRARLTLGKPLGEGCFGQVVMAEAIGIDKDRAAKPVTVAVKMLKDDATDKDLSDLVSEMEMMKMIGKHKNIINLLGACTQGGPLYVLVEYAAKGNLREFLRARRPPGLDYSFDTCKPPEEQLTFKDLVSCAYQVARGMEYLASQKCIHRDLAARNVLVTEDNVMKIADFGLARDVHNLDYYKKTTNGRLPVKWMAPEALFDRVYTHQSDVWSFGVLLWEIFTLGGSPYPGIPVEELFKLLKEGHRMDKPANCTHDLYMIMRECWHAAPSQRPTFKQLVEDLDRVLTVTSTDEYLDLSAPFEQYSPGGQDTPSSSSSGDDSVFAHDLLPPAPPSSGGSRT
# MERTK (human), sequence (Q12866 whole entry, looked up): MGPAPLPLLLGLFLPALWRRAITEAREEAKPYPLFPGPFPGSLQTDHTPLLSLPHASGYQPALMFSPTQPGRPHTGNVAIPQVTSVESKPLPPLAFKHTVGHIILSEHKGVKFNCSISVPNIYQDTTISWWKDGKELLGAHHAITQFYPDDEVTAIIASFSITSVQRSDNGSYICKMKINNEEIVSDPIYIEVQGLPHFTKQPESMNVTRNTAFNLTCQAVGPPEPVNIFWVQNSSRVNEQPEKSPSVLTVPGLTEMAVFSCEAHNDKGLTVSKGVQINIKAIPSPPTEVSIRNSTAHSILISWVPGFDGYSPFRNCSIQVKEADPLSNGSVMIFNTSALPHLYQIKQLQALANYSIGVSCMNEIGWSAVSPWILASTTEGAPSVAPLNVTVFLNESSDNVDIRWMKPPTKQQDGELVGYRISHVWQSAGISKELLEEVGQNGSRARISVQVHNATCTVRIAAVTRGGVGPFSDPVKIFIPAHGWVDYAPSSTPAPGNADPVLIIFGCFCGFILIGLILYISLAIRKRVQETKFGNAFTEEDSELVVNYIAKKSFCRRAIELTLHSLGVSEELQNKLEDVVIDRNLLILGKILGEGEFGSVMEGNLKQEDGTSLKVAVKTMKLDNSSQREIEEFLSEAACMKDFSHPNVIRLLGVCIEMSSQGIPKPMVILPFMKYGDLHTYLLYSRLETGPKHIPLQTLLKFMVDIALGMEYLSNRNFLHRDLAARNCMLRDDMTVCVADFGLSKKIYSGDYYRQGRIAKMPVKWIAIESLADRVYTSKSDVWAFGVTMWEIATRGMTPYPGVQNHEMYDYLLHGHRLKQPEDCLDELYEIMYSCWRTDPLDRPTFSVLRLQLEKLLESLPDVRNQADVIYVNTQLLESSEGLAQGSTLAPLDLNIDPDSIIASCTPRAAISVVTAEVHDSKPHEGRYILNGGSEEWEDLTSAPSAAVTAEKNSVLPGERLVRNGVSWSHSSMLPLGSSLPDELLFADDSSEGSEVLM
# DAPK1 (human), sequence (P53355 whole entry, looked up): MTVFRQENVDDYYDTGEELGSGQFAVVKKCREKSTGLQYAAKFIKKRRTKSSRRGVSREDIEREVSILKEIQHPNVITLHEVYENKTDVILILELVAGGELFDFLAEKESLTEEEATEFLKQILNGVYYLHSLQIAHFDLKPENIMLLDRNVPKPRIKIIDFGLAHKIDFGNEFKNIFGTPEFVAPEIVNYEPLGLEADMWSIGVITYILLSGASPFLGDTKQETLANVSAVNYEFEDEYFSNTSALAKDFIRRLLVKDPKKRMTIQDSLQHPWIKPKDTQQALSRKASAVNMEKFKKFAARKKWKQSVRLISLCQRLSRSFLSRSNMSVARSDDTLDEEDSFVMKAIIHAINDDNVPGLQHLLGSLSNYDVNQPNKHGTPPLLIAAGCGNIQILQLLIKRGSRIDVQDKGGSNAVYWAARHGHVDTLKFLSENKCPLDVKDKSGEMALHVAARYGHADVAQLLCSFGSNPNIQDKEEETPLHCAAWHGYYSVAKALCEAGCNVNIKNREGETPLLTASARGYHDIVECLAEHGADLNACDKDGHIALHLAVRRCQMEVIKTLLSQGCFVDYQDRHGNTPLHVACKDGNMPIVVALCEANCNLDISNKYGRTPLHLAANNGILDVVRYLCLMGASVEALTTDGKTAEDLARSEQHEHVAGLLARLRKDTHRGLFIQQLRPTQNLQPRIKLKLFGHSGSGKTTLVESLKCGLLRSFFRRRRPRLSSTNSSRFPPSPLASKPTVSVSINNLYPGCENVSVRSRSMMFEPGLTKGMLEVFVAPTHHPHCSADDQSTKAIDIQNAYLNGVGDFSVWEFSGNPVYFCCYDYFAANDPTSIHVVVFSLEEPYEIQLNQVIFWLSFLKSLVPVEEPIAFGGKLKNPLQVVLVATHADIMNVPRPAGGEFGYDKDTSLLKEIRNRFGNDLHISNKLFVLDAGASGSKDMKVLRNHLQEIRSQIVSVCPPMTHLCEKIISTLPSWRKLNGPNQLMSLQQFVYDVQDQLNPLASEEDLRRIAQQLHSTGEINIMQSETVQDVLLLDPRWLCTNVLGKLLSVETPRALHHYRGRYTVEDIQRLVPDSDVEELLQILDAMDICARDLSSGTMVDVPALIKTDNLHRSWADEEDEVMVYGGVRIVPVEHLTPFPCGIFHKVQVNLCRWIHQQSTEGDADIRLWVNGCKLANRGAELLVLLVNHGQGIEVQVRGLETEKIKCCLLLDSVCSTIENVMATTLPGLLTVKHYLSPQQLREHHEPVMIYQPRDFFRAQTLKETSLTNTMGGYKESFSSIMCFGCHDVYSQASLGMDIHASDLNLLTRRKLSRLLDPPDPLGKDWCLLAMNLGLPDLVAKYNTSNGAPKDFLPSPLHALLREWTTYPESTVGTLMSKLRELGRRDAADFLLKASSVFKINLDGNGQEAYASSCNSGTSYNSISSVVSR
# GSK3B (human), sequence (P49841 whole entry, looked up): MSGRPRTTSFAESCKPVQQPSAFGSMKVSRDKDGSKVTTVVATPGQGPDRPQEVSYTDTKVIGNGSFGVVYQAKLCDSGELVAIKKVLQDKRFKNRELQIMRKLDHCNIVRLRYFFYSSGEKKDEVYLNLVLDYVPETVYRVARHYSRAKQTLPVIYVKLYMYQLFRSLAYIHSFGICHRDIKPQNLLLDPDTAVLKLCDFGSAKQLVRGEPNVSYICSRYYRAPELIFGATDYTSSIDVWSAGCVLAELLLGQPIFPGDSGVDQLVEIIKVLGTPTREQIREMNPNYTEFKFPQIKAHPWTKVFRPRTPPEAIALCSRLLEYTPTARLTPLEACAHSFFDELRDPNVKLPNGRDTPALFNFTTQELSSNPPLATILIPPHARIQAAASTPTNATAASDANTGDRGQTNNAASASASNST
# PRKACG (human), sequence (P22612 whole entry, looked up): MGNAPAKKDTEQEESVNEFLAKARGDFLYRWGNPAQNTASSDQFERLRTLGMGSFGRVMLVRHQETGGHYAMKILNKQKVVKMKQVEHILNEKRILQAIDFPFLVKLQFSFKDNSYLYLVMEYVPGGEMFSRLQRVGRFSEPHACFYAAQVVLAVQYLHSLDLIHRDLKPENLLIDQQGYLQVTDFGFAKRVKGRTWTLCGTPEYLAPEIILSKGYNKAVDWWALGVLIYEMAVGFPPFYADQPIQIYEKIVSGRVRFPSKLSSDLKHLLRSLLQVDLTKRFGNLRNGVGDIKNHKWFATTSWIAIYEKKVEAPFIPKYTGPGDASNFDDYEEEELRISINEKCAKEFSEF
structure (smiles),measurement,setting,value
O=C(O)c1ccc2c3c1cccc3c(=O)n1c3ccccc3nc21,residual activity,[1],91.1%
same,residual activity,[2],82.5%
same,residual activity,[3],95.1%
same,residual activity,[4],109%
same,residual activity,[5],88%
same,residual activity,[6],114%
same,residual activity,[7],91%
same,residual activity,[8],99.5%
same,residual activity,[9],40.9%
same,residual activity,[10],96.8%
same,residual activity,[11],96.5%
same,residual activity,[12],105%
same,residual activity,[13],105%
same,residual activity,[14],96.5%
same,residual activity,[15],100%
same,residual activity,[16],92.9%
same,residual activity,[17],100%
same,residual activity,[18],93.5%
same,residual activity,[19],101%
same,residual activity,[20],81%
same,residual activity,[21],102%
same,residual activity,[22],99%
same,residual activity,[23],102%
same,residual activity,[24],77.7%
same,residual activity,[25],96.7%
same,residual activity,[26],60.4%
same,residual activity,[27],41.3%
same,residual activity,[28],103%
same,residual activity,[29],106%
same,residual activity,[30],59.5%
same,residual activity,[31],127%
same,residual activity,[32],97%
same,residual activity,[33],103%
same,residual activity,[34],82.2%
same,residual activity,[35],91.1%
same,residual activity,[36],90.5%
same,residual activity,[37],98%
same,residual activity,[38],96.1%
same,residual activity,[39],97.5%
same,residual activity,[40],102%
same,residual activity,[41],91.2%
same,residual activity,[42],79.8%
FC(F)(F)c1ccc(/C=C/c2nc(COc3ccc(CCCCn4ccnn4)cc3)co2)cc1,residual activity,[1],101%
same,residual activity,[2],98%
same,residual activity,[3],94.3%
same,residual activity,[4],100%
same,residual activity,[5],99.4%
same,residual activity,[6],96.8%
same,residual activity,[7],89.6%
same,residual activity,[8],100%
same,residual activity,[9],91.3%
same,residual activity,[10],101%
same,residual activity,[11],97.7%
same,residual activity,[12],99.3%
same,residual activity,[13],99.6%
same,residual activity,[14],102%
same,residual activity,[15],96.7%
same,residual activity,[16],88.4%
same,residual activity,[17],100%
same,residual activity,[18],98.8%
same,residual activity,[19],92.1%
same,residual activity,[20],112%
same,residual activity,[21],97.2%
same,residual activity,[22],103%
same,residual activity,[23],97.9%
same,residual activity,[24],97.9%
same,residual activity,[25],93.7%
same,residual activity,[26],90%
same,residual activity,[27],103%
same,residual activity,[28],100%
same,residual activity,[29],104%
same,residual activity,[30],102%
same,residual activity,[31],105%
same,residual activity,[32],93.1%
same,residual activity,[33],99.6%
same,residual activity,[34],93.3%
same,residual activity,[35],97.8%
same,residual activity,[36],96.8%
same,residual activity,[37],103%
same,residual activity,[38],98.1%
same,residual activity,[39],102%
same,residual activity,[40],95.8%
same,residual activity,[41],98.6%
same,residual activity,[42],99.5%

# — the kinase profiling compilation of Christmann-Franck et al. (2016)
